One may read the Kd as the concentration at which binding is half-saturated. In general, EC50 refers to the midpoint of the concentration-response curve. One may read the IC50 as the concentration needed to halve the response being measured.

Molecules are shown by their SMILES. “Also recorded” adds a separate entry of the source. Where two headings read alike, the source gives them in different places.

Data set [1] concerns the target T1, full intracellular domain of BTN3A1 (Homo sapiens, UniProt O00481). To be noted: known Kd, ref not given; cited from earlier work.
In data set [2] the test system is K562 cells. Conditions: statement of the discussion, not tested here; ref not given; cited from earlier work.
Data set [3] has as its system Vγ9Vδ2 T cells. Conditions: expansion from peripheral blood; ref [10]; cited from earlier work.
The next data set relates to T cells. Kind of data set: Toxicity towards the T cells in the expansion assay. The data set is classed as cell-based, human.
Data set [4] can be described thus: HPLC and HPLC-MS analysis in aqueous acetonitrile. The data set is classed as physicochemical.
Data set [5] has as its system Vγ9Vδ2 T cells. Kind of data set: Expansion of Vγ9Vδ2 T cells from peripheral blood. It counts as cell-based, human. To be noted: for Stimulation of Vγ9Vδ2 T cell proliferation: 0.1 µM, CD3+/γδ TCR+ population; for Fold difference from salt: prodrug versus unprotected salt.
Data set [6] deals with K562 cells. The data set can be described thus: K562 proliferation. The data set is classed as cell-based, human.
Data set [7] concerns the target T1, full intracellular domain of BTN3A1. The data set can be described thus: Isothermal titration calorimetry. It counts as binding. To be noted: for Binding to BTN3A1: purified BTN3A1, direct titration. Background: ITC needs no label: the signal is the heat of the interaction.
In data set [8] the test system is K562 cells. The data set can be described thus: Vγ9Vδ2 T cell mediated lysis of K562 cells. Conditions: for Fold difference from salt, lysis: 2 hour treatment/4 hour co-culture.
The mark [9] stands for this setting: presence of 10-fold higher compound 8.
[10] abbreviates: presence of 100-fold molar excess of compound 8.

T1 sequence (O00481 272-513 limits assumed): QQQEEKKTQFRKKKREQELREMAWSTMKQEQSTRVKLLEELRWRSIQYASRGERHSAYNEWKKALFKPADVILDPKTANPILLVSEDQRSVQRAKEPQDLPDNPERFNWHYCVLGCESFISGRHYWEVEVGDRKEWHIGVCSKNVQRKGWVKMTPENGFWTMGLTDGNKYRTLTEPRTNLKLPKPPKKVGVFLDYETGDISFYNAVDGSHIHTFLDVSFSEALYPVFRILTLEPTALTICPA

As to `C/C(=C\CP(=O)(O)OP(=O)(O)O)CO` [C-HMBPP, (E)-4-hydroxy-3-methyl-but-2-enyl phosphonophosphate], the Kd in data set [1] was 1.9 µM.
Regarding `C/C(=C\CCP(=O)(OCOC(=O)C(C)(C)C)OCOC(=O)C(C)(C)C)CO` [Compound 2], in the data set on K562 cells [2], the “Direct toxicity” value is reported as “not directly toxic”.
Turning to `C/C(=C\CCP(=O)(O)O)CO` [Compound 3], the concentration for a half-maximal effect (EC50) in the data set on Vγ9Vδ2 T cells [3] was 4 µM.
As for `C/C(=C\CCP(=O)(CP(=O)(OCOC(=O)C(C)(C)C)OCOC(=O)C(C)(C)C)OCOC(=O)C(C)(C)C)CO` (centres unmarked) [Compound 4, (E)-(((((5-Hydroxy-4-methylpent-3-en-1-yl)((pivaloyloxy)methoxy)phosphoryl)methyl)phosphoryl)bis(oxy))bis(methylene) bis(2,2-dimethylpropanoate)], the “Concentrations with toxicity towards the T cells” value in the data set with T cells (Figure 2B) is reported as no less than 10 µM. Moreover, the “Stability in aqueous acetonitrile” value in [4] is “some minor isomerization”. In addition, the “Stimulation of Vγ9Vδ2 T cell proliferation” value in the data set on Vγ9Vδ2 T cells [5] is recorded as “strongly stimulated proliferation”. The “Fold difference from salt” value with Vγ9Vδ2 T cells [5] (EC50 ratio) is reported as 630 x. Besides, the “Fold difference from salt” value in the data set with Vγ9Vδ2 T cells [5] (EC50 ratio, listed as POM3-CC-HMBPP (4)) is on record as 630x (versus 10). For the same compound, the concentration giving a half-maximal response (EC50) in the data set with Vγ9Vδ2 T cells [5] (Homo sapiens, T-cell) was 0.041 µM. In the data set on K562 cells [6] (72 hour treatment), the “Fold difference from HMBPP, direct K562 toxicity” value is listed as greater than 29x and the “Fold difference from salt, direct K562 toxicity” value is recorded as greater than 29x. Besides, in data set [7], the “Binding to BTN3A1” value is “did not bind”. Also, in the data set on K562 cells [8], the “Fold difference in cellular activity between compound 4 and 11” value was determined as 26 fold; the “Fold difference from salt, lysis” value is given as 150 x. For the same compound, in the data set on K562 cells [8] (listed as POM3-CC-HMBPP (4)), the “Fold difference from salt, lysis” value was 146x.
In the data set with T cells (Homo sapiens, T-cell), `CC(C)=CCCP(=O)([O-])CP(=O)([O-])[O-].[Na+].[Na+].[Na+]` [Compound 8, Sodium (((4-methylpent-3-en-1-yl)oxidophosphoryl)methyl)phosphonate] registered a concentration for half-maximal inhibition (IC50) greater than 100 µM. Further, the EC50 with Vγ9Vδ2 T cells [5] (Homo sapiens, T-cell) is greater than 100 µM; in the data set with K562 cells [8] (Homo sapiens, K562, 2 h, read-out: EC50, lysis of K562 cells by T cells) it was greater than 100 µM. Further, the “Competition with HMBPP binding” value in [7] (10x and 100x compound 8) is recorded as “capable of disrupting HMBPP binding in a dose-dependent manner”. The “Binding to BTN3A1” value in data set [7] was “too low to be measured directly; also recorded: intermediate affinity”.
Consider `COP(=O)(CC/C=C(\C)CO)CP(=O)(OC)OC` (centres unmarked) [Compound 9, Dimethyl (E)-(((5-hydroxy-4-methylpent-3-en-1-yl)(methoxy)phosphoryl)methyl)phosphonate], for which the IC50 was greater than 100 µM in the data set on T cells (toxicity in T cell expansion assay) and greater than 100 µM with K562 cells [6] (read-out: IC50, direct K562 toxicity, 72 hour treatment). For the same compound, the “Agonist / biological activity” value in the data set on Vγ9Vδ2 T cells [5] is “nor is biologically active”. The compound also showed an EC50 in the data set on Vγ9Vδ2 T cells [5] (PBMC exposed 72 hours, grown 11 days, flow cytometry) greater than 100 µM. For the same compound, in [7], the “Binding to BTN3A1” value is recorded as “neither binds to the protein”.
With `C/C(=C\CCP(=O)([O-])CP(=O)([O-])[O-])CO.[Na+].[Na+].[Na+]` [Compound 10, Sodium (E)-(((5-hydroxy-4-methylpent-3-en-1-yl)oxidophosphoryl)methyl)phosphonate], in the data set on T cells (Homo sapiens, T-cell), the half-maximal inhibitory concentration (IC50) was greater than 100 µM. Moreover, the concentration giving a half-maximal response (EC50) in the data set on Vγ9Vδ2 T cells [5] (Homo sapiens, T-cell) was determined as 26 µM. Besides, in data set [7], the “Binding to BTN3A1” value is “intermediate affinity”.
For `CC(C)=CCCP(=O)(CP(=O)(OCOC(=O)C(C)(C)C)OCOC(=O)C(C)(C)C)OCOC(=O)C(C)(C)C` (centres unmarked) [Compound 11, (((((4-Methylpent-3-en-1-yl)((pivaloyloxy)methoxy)phosphoryl)methyl)phosphoryl)bis(oxy))bis(methylene) bis(2,2-dimethylpropanoate)], the IC50 in the data set on T cells (Homo sapiens, T-cell) is greater than 100 µM. The “Agonist / biological activity” value with Vγ9Vδ2 T cells [5] is given as “No measurable agonist activity”. The “Fold difference from HMBPP” value with Vγ9Vδ2 T cells [5] (EC50 ratio) is on record as less than 0.0000051x. The same compound returned an EC50 with Vγ9Vδ2 T cells [5] (Homo sapiens, T-cell) greater than 100 µM. In addition, in the data set with K562 cells [6] (72 hour treatment), the “Fold difference from HMBPP, direct K562 toxicity” value was greater than 10x and the “Fold difference from salt, direct K562 toxicity” value is greater than 10x. For the same compound, the “Fold difference from salt, lysis” value in the data set on K562 cells [8] is greater than 14x.
For the compound `C/C(=C\COP(=O)(O)OP(=O)(O)O)CO` [HMBPP, (E)-4-hydroxy-3-methyl-but-2-enyl diphosphate, reference compound], the “Stimulation of Vγ9Vδ2 T cell proliferation” value in the data set on Vγ9Vδ2 T cells [5] is reported as “strongly stimulated proliferation”. Moreover, the “Direct toxicity” value with K562 cells [6] is reported as “not directly toxic”. The “TΔS of HMBPP binding” value in data set [7] (absence of compound 8) is -4.54 kcal/mol; in data set [7] (setting [9]), -1.1 kcal/mol; in data set [7] (setting [10]), “+28 kJ/mol”. The “ΔH of HMBPP binding” value in [7] (absence of compound 8) was -12.4 kcal/mol; in data set [7] (setting [9]), -9.32 kcal/mol; in data set [7] (setting [10]), -1.65 kcal/mol. Besides, the “Hill slope, K562 lysis” value with K562 cells [8] (four parameter non-linear regression) is 0.69.
With `C=C(C)CCOP(=O)(O)OP(=O)(O)O` [IPP, isopentenyl diphosphate], in the data set with K562 cells [2], the “Direct toxicity” value is given as “not directly toxic”.
Turning to `O=P(O)(O)C(O)(Cc1cccnc1)P(=O)(O)O` [risedronate], in the data set with K562 cells [2], the “Direct toxicity” value was “do exhibit direct toxicity”.
For `O=P(O)(O)C(O)(Cn1ccnc1)P(=O)(O)O` [zoledronate], in the data set with K562 cells [2], the “Direct toxicity” value is recorded as “do exhibit direct toxicity”.

The record behind these values is PMC5754923 (Journal of medicinal chemistry, 2017).
